Experimental data as given in patent US20110251128A1, “THYMOSIN Beta4 PEPTIDES PROMOTE TISSUE REGENERATION” (The Board of Regents of the University of Texas System, priority 2010, published 2011).
“Also recorded” adds a separate entry of the source. Where two headings read alike, the source gives them in different places. Residues, ends and D or L forms follow the SMILES beside them. No end group written: not given here.

Assays:
adult infarcted pigs = assay: Ischemia reperfusion (acute myocardial infarction) in pigs with retroinfusion of peptides; assay type: in vivo, pig; details: pig model
Method: Pigs: German pigs were purchased from the animal research department of the Ludwig-Maximilians-University (Oberschleissheim, Germany). Animal care and all experimental procedures were performed in accordance to the German and NIH animal legislation guidelines and were approved by the Bavarian Animal Care and Use Committee (AZ 55.2-1-54-2531-26/09). All animal experiments were conducted at the Walter Brendel Centre of Experimental Medicine, University of Munich.
Ischemia reperfusion experiments: Pigs (n=5/experimental group) were anesthetized and instrumented as described previously (Hinkel et al., 2008). Briefly, a balloon was placed in the left anterior descending artery (LAD) distal to the bifurcation of the first diagonal branch and inflated for 60 min. Correct localization of the coronary occlusion and patency of the first diagonal branch were ensured by injection fluoroscopy. Regional application of TB4 peptides or saline solution was performed via selective pressure regulated retroinfusion for 10 min into the anterior interventricular vein (AIV) draining the LAD-perfused myocardium (Kupatt et al., 2005).
Global myocardial function: At day 0 before ischemia induction and after 24 h of reperfusion myocardial function was obtained via Millar pressure tip catheter. Therefore the Millar pressure tip catheter was placed in the left ventricle and left ventricular pressure was recorded for off-line analysis.
Regional myocardial function: 24 hours after induction of ischemia, sternotomy was performed and ultrasonic crystals were placed subendocardial into the area at risk, the infracted area as well as into the Cx perfusion area in a standardized manner. Subendocardial segment shortening (SES) was assessed under resting heart rate as well as at 120 and 150 beats/min atrial pacing (for 1 min/each).
Infarct size and local inflammation: For assessment of infarct size methylene blue was injected in the left ventricle for negative staining of the AAR and tetrazolium red was applied into the LAD for viability staining in the infracted area. Thereafter, left ventricle was cut into slices (5 mm thick), and subjected to digital photography. Planimetry of different slices was conducted via ImageJ for assessment of infarct size in % of AAR. Tissue samples from infarct, area at risk and non-ischemic control were harvested for leukocyte recruitment. Myeloperoxidase assays were performed as previously described (Kupatt et al., 2005).

[1] = system: C57BL/6J male mice after coronary ligation; assay: Myocardial infarction by LAD coronary ligation in adult mice: echocardiography, scar volume, myocyte size; assay type: in vivo, mouse; details: for side effects: mouse model; for post-ischemic cardiac function, in words: adult mice after coronary ligation
Description: (§1) Animals and Surgical procedures. Mice: Myocardial infarctions were produced in seventy C57BL/6J male mice at 16 weeks of age (25-30 g) by ligation of the left anterior descending (LAD) coronary artery as described (Garner et al., 2003). All animal protocols were reviewed and approved by the University of Texas Southwestern Medical School Institutional Animal Care Advisory Committee and were in compliance with the rules governing animal use as published by the NIH. Mice were sedated in an isoflurane chamber (5%) for 60 seconds until self-designed coaxial mask could be safely applied. The mask supplied continuous isoflurane (2.0%) and oxygen (98.0%) under positive pressure from a Harvard small animal respirator throughout the procedures. Immediately after ligation mice were injected with 200 ng of peptide in […] or […] PBS in collagen intracardially in the infarction border, and with […] PBS intraperitoneally as described (Bock-Marquette et al., 2004). Intraperitoneal injections were repeated every three days after ligation. Effective doses of the peptides were calculated based on optimal in vitro cell migration effect and on biodistribution calculations of full length TB4 (Mora et al., 1997). The inventors administered buprenorphine (0.05 mg/kg) for post-operative pain control. Hearts were removed 1, 14 and 21 days after ligation and processed for further investigations.
Analysis of cardiac function by echocardiography: Echocardiograms to assess systolic function were performed using M-mode and 2-dimensional measurements as described previously (Garner et al., 2003). The measurements represented the average of six selected cardiac cycles from at least two separate scans performed in random-blind fashion with papillary muscles used as a point of reference for consistency in level of scan. End diastole was defined as the maximal left ventricle (LV) diastolic dimension and end systole was defined as the peak of posterior wall motion. Single outliers in each group were omitted for statistical analysis. Fractional shortening (FS), a surrogate of systolic function, was calculated from LV dimensions as follows: FS=[(EDD−ESD)/EDD]×100%. Ejection fraction (EF) was calculated as follows: EF=[(edd^3−esd^3)/edd^3]×100%. EDD, end diastolic dimension; ESD, end systolic dimension.
Calculation of scar volume and myocyte size: Scar volume was calculated after Masson's trichrome staining in six sections through the heart of each mouse using Openlab 3.03 software (Improvision) similar to previously described (Bock-Marquette et al., 2004). Percent area of collagen deposition was measured on each section in blinded fashion and averaged for each mouse.

myocardial cells = assay: Beating frequency of myocardial cells in embryonic cardiac explants on collagen gel; assay type: cell-based, mouse; details: for frequency of myocardial beating: 300 ng peptide or 100 ng TB4, normalized to PBS and TB4 controls (TB4 = 100.00); for myocyte beating, effect in words: compared with full-length TB4 or other constructs
Method: (§2) In vitro embryonic cardiac cell migration assay. The outflow tract of the heart was dissected from E11.5 wild-type mouse embryos and placed on rat-tail collagen matrix (Roche) endothelial layer facing down as described (Bock-Marquette et al., 2004; Runyan and Markwald, 1983). After 10 h of attachment, three independent explants were incubated with 300 ng of peptide #1-17, 100 ng of TB4, or 3 μl PBS in […] OPTIMEM medium (Invitrogen/Gibco) respectively. Medium and protein were changed every two days. To monitor migration distance photos were taken daily using Nikon DXM1200F microscope at 4× magnification. Cell migration distance was quantified by ImageJ software (http at rsb.info.nih.gov/ij/) in three separate explants and three measurements for each treatment respectively. Beating frequency of myocardial cells was counted three times at 7-15 days of treatment. Calculations were normalized to PBS and TB4 treated positive and negative controls. After 15 days at 37° C. in 5% CO2, explants were fixed in 4% paraformaldehyde in PBS for 10 min at room temperature. Explants were stored at 4° C. in PBS for further immunocytochemical investigations.

[2] = system: embryonic cardiac endothelial cells; assay: In vitro embryonic cardiac cell migration assay on collagen gel (outflow tract explants); assay type: cell-based, mouse; design: unit not given here; details: 300 ng peptide or 100 ng TB4 in medium; E11.5 outflow tract explants; results normalized to PBS control (TB4 = 100.00)
Method: as §2

[3] = Yang et al., 2004, cited from earlier work
mature coronary vessels = assay: Immunohistochemistry, smooth muscle α-actin positive vessels at infarction border zone; assay type: in vivo, mouse; details: two weeks after treatment, compared to PBS (FIG. 10)
Description: as §1
Immunohistochemistry. Adult mouse cardiac tissue was fixed in 4% paraformaldehyde and sections were analyzed by immunohistochemistry. Hearts were sectioned at eight levels from the base to the apex. Serial sections were immunostained with primary antibodies against Pecam-1 and Wt-1 (1:50) (Santa Cruz), Smooth muscle a-actin (1:220) (Sigma), Sarcomeric a-actinin (1:200) (Sigma), Connexin43 (1:200) (Invitrogen), pS368-Connexin43 (1:200) (Cell Signaling Technology) as recommended by the manufacturer. Terminal deoxynucleotidyl transferase dUTP nick end labeling (TUNEL) assay was performed using In Situ Cell Detection kit (Roche). Number of sm a-actin positive capillaries and Wt-1 positive cells were counted at the infarction border zone in high power photographs at all levels of the sections in three peptide, TB4 and PBS treated hearts respectively.

[4] = system: Wt-1 positive cardiac progenitors; assay: Immunohistochemistry, Wt-1 positive progenitor cells at infarction border; assay type: in vivo, mouse; details: infarction border, two weeks after injections (FIG. 11)
Description: Animals and Surgical procedures. Mice: Myocardial infarctions were produced in seventy C57BL/6J male mice at 16 weeks of age (25-30 g) by ligation of the left anterior descending (LAD) coronary artery as described (Garner et al., 2003). All animal protocols were reviewed and approved by the University of Texas Southwestern Medical School Institutional Animal Care Advisory Committee and were in compliance with the rules governing animal use as published by the NIH. Mice were sedated in an isoflurane chamber (5%) for 60 seconds until self-designed coaxial mask could be safely applied. The mask supplied continuous isoflurane (2.0%) and oxygen (98.0%) under positive pressure from a Harvard small animal respirator throughout the procedures. […] Effective doses of the peptides were calculated based on optimal in vitro cell migration effect and on biodistribution calculations of full length TB4 (Mora et al., 1997). […]
Immunohistochemistry. Adult mouse cardiac tissue was fixed in 4% paraformaldehyde and sections were analyzed by immunohistochemistry. […] Number of sm a-actin positive capillaries and Wt-1 positive cells were counted at the infarction border zone in high power photographs at all levels of the sections in three peptide, TB4 and PBS treated hearts respectively.

Row | Compound | frequency of myocardial beating (myocardial cells) | myocyte beating, effect in words (myocardial cells) | endothelial cell migration distance [2] | also measured
1 | C[C@H](N)C(=O)NCC(=O)N[C@@H](CCC(=O)O)C(=O)N[C@@H](CO)C(=O)O [#17, AGES] (H-AGES-OH) |  |  |  | side effects (adult infarcted pigs): did not observe any major side effects; side effects [1]: did not observe any major side effects
2 | #2: acetylated N-terminal variable domain with addition of Met6 (Ac-SDKPDM-OH; UniProt P62328 2-7, looked up, fragment) | 10.65+/−1.15 beats/75 sec | inhibit myocyte beating in vitro |  | 
3 | #4: de-acetylated form of the N-terminal variable domain (of #1) (SDKP; Thymosin beta-4; UniProt P62328 2-5, looked up, fragment) | 86.88+/−1.15 beats/75 sec |  | 154 | 
4 | #5: de-acetylated form of the N-terminal variable domain with Met6 (of #2) (SDKPDM; Thymosin beta-4; UniProt P62328 2-7, looked up, fragment) | 66.39+/−3.46 beats/75 sec |  | 139 | 
5 | Ac-SDKP (Ac-SDKP-OH; UniProt P62328 2-5, looked up, fragment) [#1, acetylated N-terminal variable domain of TB4] | 45.08+/−2.31 beats/75 sec | inhibit myocyte beating in vitro | 116 | fibrosis, inflammation and coronary vessel growth / angiogenesis [3]: highly angiogenic; post-ischemic cardiac (global) function [3]: did not affect post-ischemic cardiac function; also recorded: did not aid global function; fibrosis, inflammation and coronary vessel growth / angiogenesis ([3]; listed as Ac-SDKP): positive influence; post-ischemic cardiac (global) function ([3]; listed as Ac-SDKP): does not aid post-ischemic cardiac function
6 | Ac-SDKPDMox [#3] | 17.21+/−1.00 beats/75 sec |  | 70.7 | number of mature coronary vessels (mature coronary vessels): fails to alter the number of mature coronary vessels; number of mature coronary vessels (mature coronary vessels; listed as Ac-SDKPDMox): did not initiate vessel growth; post-ischemic cardiac function, in words [1]: does not alter cardiac function; post-ischemic cardiac function, in words ([1]; listed as Ac-SDKPDMox): failed to aid cardiac function; Wt-1 positive progenitor cells [4]: fails to increase Wt-1 positive progenitor cells
7 | LKKTET [#8] | 87.02+/−16.17 beats/75 sec | resembled myocyte fibrillation; also recorded: increases beating frequency | 13 | 
8 | LKKTETQEKNPLPSKETIEQEKQAGES [#14] |  |  |  | side effects (adult infarcted pigs): did not observe any major side effects; side effects [1]: did not observe any major side effects
